Assay results reported in US7396645B1, “Cholestasis signature” (priority 2002, dated 2008).
Read-outs that look alike come from different tables or passages of the source. Marks after values point to notes of the source that are not given here.

Tests used:
livers of rats = tested on: livers of rats
Experimental: (§1) After determination of the MTD and FED for a compound, each compound was dissolved in a vehicle for administration on day 1 of the study (additional daily doses were stored as frozen aliquots from this initial formulation). Each compound was administered to three individual male Sprague-Dawley rats for each of the two doses (MTD and FED) for one of four different times (0.25 day, 1 day, 3 days, and 5 days), yielding a total of up to 24 animals per compound study. Vehicle choice was based on solubility of the compound, effect of food on adsorption, and the vehicles used in the literature reports examined during the FED selection investigations, described above. Generally, the route and vehicle in which the FED was defined are used. When there was a choice of routes and vehicles, oral routes were chosen over injection routes. Many compounds, especially oncolytics, are only administerable intravenously. In such cases, the compound was administered as an intravenous formulation into the tail vein. Orally administered compounds were given dissolved in either water, 1% carboxymethycellulose (CMC) or corn oil. Intravenously and intraperitoneally administered compounds were given in 0.9% saline. Subcutaneously administered compounds were given in corn oil. Animal body weights were determined at 1 day and, where appropriate, at 4 days, before necropsy, and clinical observations were made on a daily basis. Control animals were dosed with vehicle only. Three male animals were used for each dose and time combination used for the compound treatment.
(§2) Tissue Harvest and Handling: After the allocated treatment time, the tissues from the animals were harvested. […] All the tissues collected were divided to provide samples for histopathological analyses, and the remainder of each tissue was then snap-frozen. […] The parameters were measured using a Hitachi-911 clinical chemistry analysis instrument according to the manufacturer's instructions. The following blood constituents were measured: Blood Urea Nitrogen (BUN), Creatinine (CRE), Glucose (GLU), Alanine Transaminase (ALT), Aspartate Aminotrans-ferase (AST), Alkaline Phosphatase (ALP), Total Bilirubin (TBI), Sodium (SOD), Potassium (POT), Chloride (CHL), Phosphorus (PHO), Total Protein (TPR), Albumin (ALB), Cholesterol (CHO), Creatine Phosphokinase (CPK), Lactate Dehydrogenase (LDH), Carbon Dioxide (CO2), Uric Acid (UA), and Lipase. […] The parameters were measured using a Baker 9000 blood cell analysis instrument according to the manufactures instructions. The following blood constituents were measured: Leukocyte count (WBC), Differential Leukocyte counts, Erythrocyte count (RBC), Hemoglobin concentration (HGB), Hematocrit (HCT), Mean Corpuscular Volume (MCV), Mean Corpuscular Hemoglobin (MCH), Mean Corpuscular Hemoglobin Concentration (MCC), Thrombocyte Count (PLC). Histopathology: Histopathological analyses of hematoxylin and eosin-stained tissue sections were performed and peer-reviewed by board-certified (Diplomate, American College of Veterinary Pathologists) veterinary pathologists. Preparation of Enriched mRNA: Punch Biopsies were Taken from the Frozen Tissues and were completely homogenized before being processed using the MagNA Pure robot. (Roche Diagnostics Corp., Indianapolis, Ind.) in combination with the MagNA Pure LC RNA Isolation kit II (Roche Diagnostics Corp). The amount of lysis buffer was adjusted to allow 1 ml per 50 mg for liver tissue, or 1 ml per 80 mg for all other tissues. After complete homogenization and before loading of the samples into the 32-well MagNA Pure plate, the samples were syringed 5-6 times using a 20-gauge 3-ml syringe to ensure a smooth solution for robotic processing. Tissue sample processing was performed in duplicate wells (loading 150 μl of homogenized sample and 150 μl of additional lysis buffer to each well) of the MagNA Pure LC, which is programmed to extract mRNA using oligo-dT selection technology into a final elution volume of 100 μl.

Cholestasis Signature = tested on: Cholestasis Signature
Experimental: as §1, §2

male Sprague-Dawley rats = details: rat
From the text: Compound dosing was based on the acute dose LD50s recorded in published reference or literature sources. […] The MTD (maximum tolerated dose) was then selected as the dose at which the animals […] 5-10% body weight during the 5-day range finding study. […] In addition, the clinical observations must show no or mild clinical signs during the whole of the range-finding study. At the next highest dose, signs and symptoms of adverse effects and exceeding those of the MTD should be seen to occur. Should these criteria not be met, the range-finding study is repeated using a modified dose range.
as §1
Tissue Harvest and Handling: After the allocated treatment time, the tissues from the animals were harvested. […] All the tissues collected were divided to provide samples for histopathological analyses, and the remainder of each tissue was then snap-frozen. […] The parameters were measured using a Hitachi-911 clinical chemistry analysis instrument according to the manufacturer's instructions. The following blood constituents were measured: Blood Urea Nitrogen (BUN), Creatinine (CRE), Glucose (GLU), Alanine Transaminase (ALT), Aspartate Aminotrans-ferase (AST), Alkaline Phosphatase (ALP), Total Bilirubin (TBI), Sodium (SOD), Potassium (POT), Chloride (CHL), Phosphorus (PHO), Total Protein (TPR), Albumin (ALB), Cholesterol (CHO), Creatine Phosphokinase (CPK), Lactate Dehydrogenase (LDH), Carbon Dioxide (CO2), Uric Acid (UA), and Lipase. […] The parameters were measured using a Baker 9000 blood cell analysis instrument according to the manufactures instructions. The following blood constituents were measured: Leukocyte count (WBC), Differential Leukocyte counts, Erythrocyte count (RBC), Hemoglobin concentration (HGB), Hematocrit (HCT), Mean Corpuscular Volume (MCV), Mean Corpuscular Hemoglobin (MCH), Mean Corpuscular Hemoglobin Concentration (MCC), Thrombocyte Count (PLC). Histopathology: Histopathological analyses of hematoxylin and eosin-stained tissue sections were performed and peer-reviewed by board-certified (Diplomate, American College of Veterinary Pathologists) veterinary pathologists.

[1] = rat liver histopathology, training-set treatments
[2] = rat liver expression data vs Cholestasis Signature, maximum score of training treatments normalised to 100, dose and time not given
[3] = 16 mg/kg orally in corn oil, 3 days, vs vehicle control, average of 3 animals
[4] = 386 mg/kg orally in corn oil, 3 days, vs vehicle control, average of 3 animals

O=NN(CCCl)C(=O)NCCCl [CARMUSTINE, 1,3-bis(2-chloroethyl)-1-nitrosourea]
increased hepatocyte enlargement and increased eosinophilic granular cytoplasm (livers of rats; [1]): mild to severe | nuclear/cytoplasmic condensation (apoptosis) and/or necrosis in liver (livers of rats; [1]): mild to moderate | bile duct hyperplasia (livers of rats; rat liver histopathology, training-set treatments, in most animals): moderate | Sequence Projection Score (SPS) (Cholestasis Signature; [2]): 69* | Fold change in serum alkaline phosphatase (male Sprague-Dawley rats; [3]): 1.7 fold | Fold change in serum alkaline phosphatase and total bilirubin (male Sprague-Dawley rats; [3]): 8.1 fold | Fold change in serum total bilirubin (male Sprague-Dawley rats; [3]): 4.6 fold

Clc1ccccc1C(c1ccccc1)(c1ccccc1)n1ccnc1 [CLOTRIMAZOLE, 1-(o-chloro-α,α-diphenylbenzyl)imidazole]
nuclear/cytoplasmic condensation (apoptosis) and/or necrosis in liver (livers of rats; rat, in vivo): mild to moderate | steatosis (livers of rats; rat, in vivo): moderate to very severe | Sequence Projection Score (SPS) (Cholestasis Signature; rat, in vivo): 33* | raised serum levels of ALP and TBI compared with vehicle-treated control animals (male Sprague-Dawley rats; in vivo, po): at least 2 fold | Fold change in serum alkaline phosphatase (male Sprague-Dawley rats; in vivo, po, 178 mg/kg): 1.4 fold | Fold change in serum alkaline phosphatase and total bilirubin (male Sprague-Dawley rats; in vivo, po, 178 mg/kg): 2.9 fold | Fold change in serum total bilirubin (male Sprague-Dawley rats; in vivo, po, 178 mg/kg): 2.0 fold

CC/C(=C(/CC)c1ccc(O)cc1)c1ccc(O)cc1 [DIETHYLSTILBESTROL, 3,4-bis-(4-hydroxyphenyl)-3-hexene]
increased hepatocyte enlargement and increased eosinophilic granular cytoplasm (livers of rats; rat, in vivo): mild to severe | nuclear/cytoplasmic condensation (apoptosis) and/or necrosis in liver (livers of rats; rat, in vivo): mild to moderate | Sequence Projection Score (SPS) (Cholestasis Signature; rat, in vivo): 34* | raised serum levels of ALP and TBI compared with vehicle-treated control animals (male Sprague-Dawley rats; in vivo, po): at least 2 fold | Fold change in serum alkaline phosphatase (male Sprague-Dawley rats; in vivo, po, 300 mg/kg): 2.0 fold | Fold change in serum alkaline phosphatase and total bilirubin (male Sprague-Dawley rats; in vivo, po, 300 mg/kg): 11.5 fold | Fold change in serum total bilirubin (male Sprague-Dawley rats; in vivo, po, 300 mg/kg): 5.8 fold

Cc1ccc(C)c(OCCCC(C)(C)C(=O)O)c1 [GEMFIBROZIL, 5-(2,5-dimethylphenoxy)-2,2-dimethylpentanoic acid]
increased hepatocyte enlargement and increased eosinophilic granular cytoplasm (livers of rats; rat, in vivo): mild to severe | nuclear/cytoplasmic condensation (apoptosis) and/or necrosis in liver (livers of rats; rat, in vivo): mild to moderate | Sequence Projection Score (SPS) (Cholestasis Signature; rat, in vivo): 28* | raised serum levels of ALP and TBI compared with vehicle-treated control animals (male Sprague-Dawley rats; in vivo, po): at least 2 fold | Fold change in serum alkaline phosphatase (male Sprague-Dawley rats; in vivo, po, 700 mg/kg): 2.1 fold

c1ccc2c(c1)Nc1ccccc1S2 [PHENOTHIAZINE, 2,3:5,6-dibenzo-1,4-thiazine]
steatosis (livers of rats; [1]): moderate to very severe | Sequence Projection Score (SPS) (Cholestasis Signature; [2]): 49* | Fold change in serum alkaline phosphatase (male Sprague-Dawley rats; [4]): −1.1 fold | Fold change in serum alkaline phosphatase and total bilirubin (male Sprague-Dawley rats; [4]): 3.4 fold | Fold change in serum total bilirubin (male Sprague-Dawley rats; [4]): 3.7 fold
